Measurements as given in BindingDB's records for doi:10.1021/jm701311r (Georgia Institute of Technology, 2008).
pIC50: −log10 of the molar value.

How the values were obtained:
Assay in all cases: AE Enzyme Inhibition Assay
Legumain [1] = target: T1, Legumain (Ixodes ricinus, UniProt Q6PRC7); settings: 25 °C
T1 sequence (Q6PRC7 whole entry): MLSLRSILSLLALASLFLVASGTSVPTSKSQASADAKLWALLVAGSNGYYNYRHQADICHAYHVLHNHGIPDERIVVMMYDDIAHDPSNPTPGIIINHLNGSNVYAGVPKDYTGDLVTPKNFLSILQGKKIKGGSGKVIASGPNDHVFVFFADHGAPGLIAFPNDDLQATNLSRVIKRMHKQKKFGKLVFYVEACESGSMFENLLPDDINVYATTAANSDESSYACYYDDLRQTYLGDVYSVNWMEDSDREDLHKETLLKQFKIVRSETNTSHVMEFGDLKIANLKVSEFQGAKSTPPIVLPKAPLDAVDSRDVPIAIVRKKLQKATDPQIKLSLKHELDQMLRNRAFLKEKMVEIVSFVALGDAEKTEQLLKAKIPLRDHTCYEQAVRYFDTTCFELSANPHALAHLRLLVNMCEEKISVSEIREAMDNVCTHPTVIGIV
Description: (§1) AE activity in the induction medium was measured with the substrate Cbz-Ala-Ala-Asn-AMC. In a black 96-well microtiter plate, aza-peptidyl inhibitors were added to the reaction buffer containing the activated enzyme, and allowed to incubate at room temperature for 20 min. Then, substrate Cbz- Ala-Ala-Asn-AMC was added and the reaction allowed proceeding for 20 min. Plotting the relative fluorescence units (RFU)/min against the inhibitor concentration (uM) permitted calculation of the IC50 value.

Legumain [2] = target: T2, Legumain (Schistosoma mansoni, UniProt Q9NFY9)
T2 sequence (Q9NFY9 whole entry): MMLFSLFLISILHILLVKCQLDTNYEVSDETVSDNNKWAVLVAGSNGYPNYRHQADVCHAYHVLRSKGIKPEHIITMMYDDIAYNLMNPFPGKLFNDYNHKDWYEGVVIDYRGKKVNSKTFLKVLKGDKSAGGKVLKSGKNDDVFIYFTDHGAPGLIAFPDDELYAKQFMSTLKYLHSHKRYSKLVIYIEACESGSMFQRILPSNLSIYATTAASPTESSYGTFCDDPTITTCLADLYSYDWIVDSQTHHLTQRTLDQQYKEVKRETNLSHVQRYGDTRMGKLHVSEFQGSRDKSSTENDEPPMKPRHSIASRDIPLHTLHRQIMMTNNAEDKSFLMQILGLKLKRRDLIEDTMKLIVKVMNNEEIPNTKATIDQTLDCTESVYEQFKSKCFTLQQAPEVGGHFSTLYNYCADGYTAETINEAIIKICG
Description: as §1

[3] = target: T3, Clan CD, family C13, asparaginyl endopeptidase-like cysteine peptidase (Trichomonas vaginalis (strain ATCC PRA-98 / G3), UniProt A2DYT2)
T3 sequence (A2DYT2 whole entry): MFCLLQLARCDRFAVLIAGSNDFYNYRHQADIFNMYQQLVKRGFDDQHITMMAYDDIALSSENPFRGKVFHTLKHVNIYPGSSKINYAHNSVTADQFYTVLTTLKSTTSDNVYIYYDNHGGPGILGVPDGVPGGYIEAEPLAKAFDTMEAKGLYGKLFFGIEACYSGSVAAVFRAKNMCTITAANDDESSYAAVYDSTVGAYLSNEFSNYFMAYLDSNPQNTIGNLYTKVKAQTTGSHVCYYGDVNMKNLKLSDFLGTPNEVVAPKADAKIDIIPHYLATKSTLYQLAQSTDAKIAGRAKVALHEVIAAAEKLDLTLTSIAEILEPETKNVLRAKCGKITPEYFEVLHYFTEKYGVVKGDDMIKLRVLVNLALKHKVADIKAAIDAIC
Description: as §1

C[C@H](NC(=O)OCc1ccccc1)C(=O)N[C@@H](C)C(=O)NN(CC(N)=O)C(=O)C=CC(=O)NCCc1ccccc1 [benzyl N-[(1S)-1-{[(2S)-1-[(2E)-3-[N-(carbamoylmethyl)hydrazido]-N-(2-phenylethyl)prop-2-enamide]-1-oxopropan-2-yl]carbamoyl}ethyl]carbamate]
pIC50 (Legumain [1]): 6.46 | pIC50 (Legumain [2]; pH 6.8, 22 °C): 6.22 | pIC50 ([3]; pH 6.8, 22 °C): 8.00

CCOC(=O)C=CC(=O)N(CC(N)=O)NC(=O)[C@H](C)NC(=O)[C@H](C)NC(=O)CCCC[C@@H]1SC[C@@H]2NC(=O)N[C@@H]21 [ethyl (2E)-4-[(2S)-2-[(2S)-2-{5-[(3aS,4S,6aR)-2-oxo-hexahydro-1H-thieno[3,4-d]imidazolidin-4-yl]pentanamido}propanamido]-N'-(carbamoylmethyl)propanehydrazido]-4-oxobut-2-enoate]
pIC50 (Legumain [1]): 8.55 | pIC50 (Legumain [2]; 25 °C): 8.00 | pIC50 ([3]; 25 °C): > 8.00

C[C@H](NC(=O)OCc1ccccc1)C(=O)N[C@@H](C)C(=O)NN(CC(N)=O)C(=O)C=CC(=O)N1CCCc2ccccc21 [benzyl N-[(1S)-1-{[(2S)-1-[(2E)-N-(carbamoylmethyl)-4-oxo-4-(1,2,3,4-tetrahydroquinolin-1-yl)but-2-enehydrazido]-1-oxopropan-2-yl]carbamoyl}ethyl]carbamate]
pIC50 (Legumain [1]): 8.40 | pIC50 (Legumain [2]; 25 °C): 7.15 | pIC50 ([3]; 25 °C): 8.46

C[C@H](NC(=O)OCc1ccccc1)C(=O)N[C@@H](C)C(=O)NN(CC(N)=O)C(=O)C=CC(=O)N(C)Cc1cccc2ccccc12 [benzyl N-[(1S)-1-{[(2S)-1-[(2E)-3-[N-(carbamoylmethyl)hydrazido]-N-methyl-N-(naphthalen-1-ylmethyl)prop-2-enamide]-1-oxopropan-2-yl]carbamoyl}ethyl]carbamate]
pIC50 (Legumain [1]): 8.26 | pIC50 (Legumain [2]; pH 6.8, 22 °C): 7.46 | pIC50 ([3]; 25 °C): > 9.00

C[C@H](NC(=O)OCc1ccccc1)C(=O)N[C@@H](C)C(=O)NN(CC(N)=O)C(=O)C=CC(=O)N1CCc2ccccc2C1 [benzyl N-[(1S)-1-{[(2S)-1-[(2E)-N-(carbamoylmethyl)-4-oxo-4-(1,2,3,4-tetrahydroisoquinolin-2-yl)but-2-enehydrazido]-1-oxopropan-2-yl]carbamoyl}ethyl]carbamate]
pIC50 (Legumain [1]): 7.60 | pIC50 (Legumain [2]; 25 °C): 6.70 | pIC50 ([3]; 25 °C): 8.00

C[C@H](NC(=O)OCc1ccccc1)C(=O)N[C@@H](C)C(=O)NN(CC(N)=O)C(=O)C=Cc1cccnc1 [benzyl N-[(1S)-1-{[(2S)-1-[(2E)-N-(carbamoylmethyl)-3-(pyridin-3-yl)prop-2-enehydrazido]-1-oxopropan-2-yl]carbamoyl}ethyl]carbamate]
pIC50 (Legumain [1]): 4.82 | pIC50 (Legumain [2]; pH 6.8, 22 °C): < 5.70 | pIC50 ([3]; 25 °C): 5.10

C[C@H](NC(=O)OCc1ccccc1)C(=O)N[C@@H](C)C(=O)NN(CC(N)=O)C(=O)C=CC(=O)NCc1ccc(F)cc1 [benzyl N-[(1S)-1-{[(2S)-1-[(2E)-3-[N-(carbamoylmethyl)hydrazido]-N-[(4-fluorophenyl)methyl]prop-2-enamide]-1-oxopropan-2-yl]carbamoyl}ethyl]carbamate]
pIC50 (Legumain [1]): 6.60 | pIC50 (Legumain [2]; pH 6.8, 22 °C): 6.10 | pIC50 ([3]; pH 6.8, 22 °C): 7.12

C[C@H](NC(=O)OCc1ccccc1)C(=O)N[C@@H](C)C(=O)NN(CC(N)=O)C(=O)C=CC(=O)N(C)c1ccccc1 [benzyl N-[(1S)-1-{[(2S)-1-[(2E)-3-[N-(carbamoylmethyl)hydrazido]-N-methyl-N-phenylprop-2-enamide]-1-oxopropan-2-yl]carbamoyl}ethyl]carbamate]
pIC50 (Legumain [1]): 8.74 | pIC50 (Legumain [2]; pH 6.8, 22 °C): 7.22 | pIC50 ([3]; pH 6.8, 22 °C): 8.30

C[C@H](NC(=O)OCc1ccccc1)C(=O)N[C@@H](C)C(=O)NN(CC(N)=O)C(=O)C=CC(=O)N1CC=C(c2ccccc2)CC1 [benzyl N-[(1S)-1-{[(2S)-1-[(2E)-N-(carbamoylmethyl)-4-oxo-4-(4-phenyl-1,2,3,6-tetrahydropyridin-1-yl)but-2-enehydrazido]-1-oxopropan-2-yl]carbamoyl}ethyl]carbamate]
pIC50 (Legumain [1]): 7.07 | pIC50 (Legumain [2]; 25 °C): 6.12 | pIC50 ([3]; 25 °C): 8.00
